# Experimental data as given in publication PMC6872814, “Functional interactions between nitrite reductase and nitric oxide reductase from Paracoccus denitrificans” (Scientific Reports, 2019).
# Biological target: T1, cNOR (c-type nitric oxide reductase, NorB and NorC) (Paracoccus denitrificans, UniProt A1B4X6+Q51662)
# T1 construct: gene Pden_2483; NorBC two-subunit complex, plasmid pNOREX in E. coli JM109 with pEC86, DDM-solubilised and purified; reconstituted in liposomes for the Km
# T1 sequence (A1B4X6 1-462): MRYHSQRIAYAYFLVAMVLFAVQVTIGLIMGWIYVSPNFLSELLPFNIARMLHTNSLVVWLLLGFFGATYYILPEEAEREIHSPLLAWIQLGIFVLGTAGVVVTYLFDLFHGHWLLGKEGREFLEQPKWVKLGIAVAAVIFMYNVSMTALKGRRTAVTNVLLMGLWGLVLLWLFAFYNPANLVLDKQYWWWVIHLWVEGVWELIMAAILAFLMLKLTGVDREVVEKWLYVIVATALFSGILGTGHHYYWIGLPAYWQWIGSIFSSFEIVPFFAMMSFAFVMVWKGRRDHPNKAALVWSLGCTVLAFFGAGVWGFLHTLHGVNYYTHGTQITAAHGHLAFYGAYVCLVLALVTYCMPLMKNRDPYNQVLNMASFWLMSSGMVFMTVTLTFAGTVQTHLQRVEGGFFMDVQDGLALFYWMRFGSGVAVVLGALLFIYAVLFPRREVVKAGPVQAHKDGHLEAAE
# T1 sequence (Q51662 2-150): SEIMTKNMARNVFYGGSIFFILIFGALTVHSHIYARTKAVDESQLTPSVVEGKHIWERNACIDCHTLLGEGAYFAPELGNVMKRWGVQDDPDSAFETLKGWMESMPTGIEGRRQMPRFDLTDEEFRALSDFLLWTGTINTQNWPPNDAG
# Experiment: Clark-type NO electrode, inhibition of NO reduction, data not shown
# Type: biochemical
# Conditions: inhibitor at high (mM) concentrations; 50 mM HEPES pH 7.0, 50 mM KCl
smiles,measurement,value
O=NO [nitrite],"Clark-type NO electrode, inhibition of NO reduction, data not shown","For nitrite, we see that it can inhibit cNOR activity, but only at high (mM)"
